Measurements as given in patent US4740505A, “Pyridazinyloxy (or thio) phenyl phosphates” (priority 1985, dated 1988).
Like-named read-outs stand apart in the source and are kept apart here.

What was measured:
[1] = test system: Tetranychus urticae; test: Effectiveness on Tetranychus urticae (rating of effects on kidney bean seedlings); type: in vivo; conditions: 500 ppm, 20 ml, rating based on percent decrease; for Rating of effect Day-2: 2nd day after treatment; for Rating of effect Day-7: 7th day after treatment
Description: Effectiveness on Tetranychus urticae
Each of the compounds listed in the following table is processed into an emulsifiable concentrate in accordance with the formulation of Example 6. The emulsifiable concentrate is diluted with water (Dyne®, a spreading agent produced by Takeda Chemical Ind. Ltd., as diluted 3,000-fold) to prepare a 500 ppm aqueous solution. Ten female adult of Tetranychus urticae are put into each kidney been seedling raised in a jiffy pot (6 cm in diameter), and left in a glass house at 28° C. for 24 hours. Each pot is taken out of the glass house; 20 ml of the aqueous solution as prepared above is spread over each kidney bean seedling. The jiffy pots are laid in the glass house again. Larvae and adult which are alive on the leaves are counted at the 2nd and 7th days after the spreading treatment. The test is repeated two times. The degrees are determined on the basis of percent decrease.

[2] = test system: Spodoptera litura; test: Effectiveness on Spodoptera litura (mortality of 3rd instar larvae on sprayed soybean leaves); type: in vivo
Description: Effectiveness of Spondoptera litura
Each of the test compounds listed in the following table is processed into an emulsifiable concentrate in accordance with the formulation of Example 6. The emulsifiable concentrate is diluted with water (Dyne®, a spreading agent produced by Takeda Chemical Ind. Ltd., as diluted 3,000-fold) to prepare a 100 ppm aqueous solution.
Using a spray gun (nozzle pressure of 1 kg/cm^2 gauge), 20 ml of the aqueous 100 ppm solution is sprayed over soybean seedlings in a spraying chamber (on 10th day after germination) which have been raised in jiffy pots (6 cm in diameter). Two main leaves are respectively cut off from the seedlings 2 hours and 6 days after the spraying. Each of the leaves is put into an ice cream cup (diameter: 6 cm, depth: 4 cm), and 10 larvae of Spodoptera litura at the 3rd instar are put into each of the cups. The cups are left in a room at 25° C.; after 48 hours, dead larvae are counted. The test is repeated two times. The results are shown in terms of mortality (%) in Table 6. [formula]
The following compounds are used for controls.
The same compounds are used for controls also in the following Test Examples.

[3] = Toxicological test: oral acute toxicity in mice; set-up: species or system mice (ddY-SLC strained male); conditions: mouse, in vivo, five-week aged ddY-SLC male mice
[4] = 100 ppm spray, leaves cut 6 days after spraying, dead larvae counted after 48 hours, 25° C., read-out: Mortality 6th day after spraying
[5] = 48 h, read-out: Mortality 2 hours after spraying
[6] = 100 ppm spray, leaves cut 2 hours after spraying, dead larvae counted after 48 hours, 25° C., read-out: Mortality 2 hours after spraying

CCCSP(=O)(OCC)Oc1ccc(Oc2ccc(Cl)nn2)cc1 (stereo not drawn) [Compound No. 2, O-Ethyl-S-n-propyl-O-[4-(3-chloropyridazinyl-6-oxy)phenyl]phosphorothioate]
Rating of effect Day-2 [1]: 3 (≥90) | Rating of effect Day-7 [1]: 3 (≥90) | mortality at 100 ppm [2, 4]: 100% | mortality at 100 ppm [2, 5]: 100%

CCCSP(=S)(OCC)Oc1ccc(Oc2ccc(Cl)nn2)cc1 (stereo not drawn) [Compound No. 3]
LD50 [3]: ~300 mg/kg | Rating of effect Day-2 [1]: 3 (≥90) | Rating of effect Day-7 [1]: 3 (≥90) | mortality at 100 ppm [2, 4]: 90% | mortality at 100 ppm [2, 5]: 100%

CCCSP(=O)(OCC)Oc1ccc(Sc2ccc(Cl)nn2)cc1 (stereo not drawn) [Compound No. 4]
LD50 [3]: > 300 mg/kg | Rating of effect Day-2 [1]: 3 (≥90) | Rating of effect Day-7 [1]: 3 (≥90) | mortality at 100 ppm [2, 4]: 95% | mortality at 100 ppm [2, 5]: 100%

CCCSP(=O)(OCC)Oc1cccc(Oc2ccc(N(C)C)nn2)c1 (stereo not drawn) [Compound No. 21, O-Ethyl-S-n-propyl-O-[3-(3-dimethylaminopyridazinyl-6-oxy)phenyl]phosphorothioate]
Rating of effect Day-2 [1]: 3 (≥90) | Rating of effect Day-7 [1]: 3 (≥90) | mortality at 100 ppm [2, 4]: 100% | mortality at 100 ppm [2, 5]: 100%

CCC(C)SP(=O)(OC)Oc1ccccc1Oc1ccc(Cl)nn1 (stereo not drawn) [Compound No. 27, O-Methyl-S-sec-butyl-O-[2-(3-chloropyridazinyl-6-oxy)phenyl]phosphorothioate]
Rating of effect Day-2 [1]: 3 (≥90) | Rating of effect Day-7 [1]: 3 (≥90) | mortality at 100 ppm [2, 4]: 100% | mortality at 100 ppm [2, 5]: 100%

CCCSP(=O)(OCC)Oc1ccccc1Oc1ccc(Cl)nn1 (stereo not drawn) [Compound No. 29, O-Ethyl-S-n-propyl-O-[2-(3-chloropyridazinyl-6-oxy)phenyl]phosphorothioate]
Rating of effect Day-2 [1]: 3 (≥90) | Rating of effect Day-7 [1]: 3 (≥90) | mortality at 100 ppm ([2]; 48 h, read-out: Mortality 6th day after spraying): 90% | mortality at 100 ppm [2, 5]: 100%

CCCSP(=S)(OCC)Oc1ccccc1Oc1ccc(Cl)nn1 (stereo not drawn) [Compound No. 30, O-Ethyl-S-n-propyl-O-[2-(3-chloropyridazinyl-6-oxy)phenyl]phosphorodithioate]
LD50 [3]: > 300 mg/kg | Rating of effect Day-2 [1]: 3 (≥90) | Rating of effect Day-7 [1]: 3 (≥90) | mortality at 100 ppm [2, 4]: 100% | mortality at 100 ppm [2, 5]: 100%

CCCSP(=S)(OCC)Oc1ccccc1Sc1ccc(Cl)nn1 (stereo not drawn) [Compound No. 32, O-Ethyl-S-n-propyl-O-[2-(3-chloropyridazinyl-6-thio)phenyl]phosphorodithioate]
LD50 [3]: > 300 mg/kg | Rating of effect Day-2 [1]: 3 (≥90) | Rating of effect Day-7 [1]: 3 (≥90)

CCCSP(=O)(OCC)Oc1ccccc1Oc1ccc(OC)nn1 (stereo not drawn) [Compound No. 39, O-Ethyl-S-n-propyl-O-[2-(3-methoxypyridazinyl-6-oxy)phenyl]phosphorothioate]
LD50 [3]: ~300 mg/kg | Rating of effect Day-2 [1]: 3 (≥90) | Rating of effect Day-7 [1]: 3 (≥90) | mortality at 100 ppm [2, 4]: 100% | mortality at 100 ppm [2, 5]: 100%

CCCSP(=S)(OCC)Oc1ccccc1Oc1ccc(OC)nn1 (stereo not drawn) [Compound No. 40]
LD50 [3]: > 300 mg/kg | Rating of effect Day-2 [1]: 3 (≥90) | Rating of effect Day-7 [1]: 3 (≥90) | mortality at 100 ppm [2, 4]: 100% | mortality at 100 ppm [2, 5]: 100%

COP(=S)(OC)Oc1ccc([N+](=O)[O-])c(C)c1 [Fenitrothion, reference compound]
Rating of effect Day-2 [1]: 3 (≥90) | Rating of effect Day-7 [1]: 0 (≤20) | mortality at 100 ppm [2, 6]: 80% | mortality at 100 ppm [2, 4]: 0%

CCCSP(=S)(OCC)Oc1ccc(Cl)cc1Cl (stereo not drawn) [Prothiophos, reference compound]
Rating of effect Day-2 [1]: 3 (≥90) | Rating of effect Day-7 [1]: 0 (≤20) | mortality at 100 ppm [2, 6]: 100% | mortality at 100 ppm [2, 4]: 10%

CCCSP(=O)(OCC)Oc1ccc(Oc2cccnn2)cc1 (stereo not drawn) [compound 1]
Rating of effect Day-2 [1]: 3 (≥90) | Rating of effect Day-7 [1]: 3 (≥90) | mortality at 100 ppm [2, 4]: 90% | mortality at 100 ppm [2, 5]: 100%

CCCSP(=S)(OCC)Oc1ccc(Sc2ccc(Cl)nn2)cc1 (stereo not drawn) [compound 5]
LD50 [3]: > 300 mg/kg | Rating of effect Day-2 [1]: 3 (≥90) | Rating of effect Day-7 [1]: 3 (≥90)

CCCSP(=O)(OCC)Oc1ccc(Oc2ccc(N(C)C)nn2)cc1 (stereo not drawn) [compound 6]
mortality at 100 ppm [2, 4]: 90% | mortality at 100 ppm [2, 5]: 100%

CCCSP(=S)(OCC)Oc1ccc(Oc2ccc(N(C)C)nn2)cc1 (stereo not drawn) [compound 7]
LD50 [3]: > 300 mg/kg

CCCSP(=O)(OCC)Oc1ccc(Sc2ccc(N(C)C)nn2)cc1 (stereo not drawn) [compound 8]
LD50 [3]: ~300 mg/kg | Rating of effect Day-2 [1]: 3 (≥90) | Rating of effect Day-7 [1]: 3 (≥90)

CCCSP(=S)(OCC)Oc1ccc(Sc2ccc(N(C)C)nn2)cc1 (stereo not drawn) [compound 9]
LD50 [3]: > 300 mg/kg | Rating of effect Day-2 [1]: 3 (≥90) | Rating of effect Day-7 [1]: 3 (≥90)

CCCSP(=S)(OCC)Oc1ccc(Oc2ccc(NC(C)CC)nn2)cc1 (stereo not drawn) [compound 10]
LD50 [3]: > 300 mg/kg

CCCSP(=O)(OCC)Oc1ccc(Sc2ccc(NC(C)CC)nn2)cc1 (stereo not drawn) [compound 11]
LD50 [3]: > 300 mg/kg

CCCSP(=S)(OCC)Oc1ccc(Sc2ccc(NC(C)CC)nn2)cc1 (stereo not drawn) [compound 12]
LD50 [3]: > 300 mg/kg

CCCSP(=O)(OCC)Oc1ccc(Oc2ccc(N(C(C)=O)C(C)CC)nn2)cc1 (stereo not drawn) [compound 13]
Rating of effect Day-2 [1]: 3 (≥90) | Rating of effect Day-7 [1]: 3 (≥90)

CCC(C)SP(=O)(OC)Oc1ccc(Oc2ccc(Cl)nn2)c(C)c1 (stereo not drawn) [compound 14]
Rating of effect Day-2 [1]: 3 (≥90) | Rating of effect Day-7 [1]: 3 (≥90)

CCCSP(=O)(OCC)Oc1ccc(Oc2ccc(Cl)nn2)c(C)c1 (stereo not drawn) [compound 15]
Rating of effect Day-2 [1]: 3 (≥90) | Rating of effect Day-7 [1]: 3 (≥90) | mortality at 100 ppm [2, 4]: 100% | mortality at 100 ppm [2, 5]: 100%

CCCSP(=S)(OCC)Oc1ccc(Oc2ccc(Cl)nn2)c(C)c1 (stereo not drawn) [compound 16]
LD50 [3]: > 300 mg/kg | Rating of effect Day-2 [1]: 3 (≥90) | Rating of effect Day-7 [1]: 3 (≥90) | mortality at 100 ppm [2, 4]: 100% | mortality at 100 ppm [2, 5]: 100%

CCCSP(=O)(OCC)Oc1cccc(Oc2cccnn2)c1 (stereo not drawn) [compound 17]
Rating of effect Day-2 [1]: 3 (≥90) | Rating of effect Day-7 [1]: 3 (≥90) | mortality at 100 ppm [2, 4]: 100% | mortality at 100 ppm [2, 5]: 100%

CCCSP(=O)(OCC)Oc1cccc(Oc2ccc(Cl)nn2)c1 (stereo not drawn) [compound 18]
LD50 [3]: > 300 mg/kg | Rating of effect Day-2 [1]: 3 (≥90) | Rating of effect Day-7 [1]: 3 (≥90) | mortality at 100 ppm [2, 4]: 100% | mortality at 100 ppm [2, 5]: 100%

CCCSP(=O)(OCC)Oc1cccc(Sc2ccc(Cl)nn2)c1 (stereo not drawn) [compound 19]
LD50 [3]: > 300 mg/kg | Rating of effect Day-2 [1]: 3 (≥90) | Rating of effect Day-7 [1]: 3 (≥90) | mortality at 100 ppm [2, 4]: 90% | mortality at 100 ppm [2, 5]: 100%

CCCSP(=S)(OCC)Oc1cccc(Sc2ccc(Cl)nn2)c1 (stereo not drawn) [compound 20]
LD50 [3]: > 300 mg/kg | Rating of effect Day-2 [1]: 3 (≥90) | Rating of effect Day-7 [1]: 3 (≥90) | mortality at 100 ppm [2, 4]: 90% | mortality at 100 ppm [2, 5]: 100%

CCCSP(=O)(OCC)Oc1cccc(Oc2ccc(NC(C)CC)nn2)c1 (stereo not drawn) [compound 22]
mortality at 100 ppm [2, 4]: 100% | mortality at 100 ppm [2, 5]: 100%

CCCSP(=O)(OCC)Oc1ccccc1Oc1ccc(Br)nn1 (stereo not drawn) [compound 24]
LD50 [3]: ~300 mg/kg | Rating of effect Day-2 [1]: 3 (≥90) | Rating of effect Day-7 [1]: 3 (≥90) | mortality at 100 ppm [2, 4]: 100% | mortality at 100 ppm [2, 5]: 100%

CCC(C)SP(=O)(OC)Oc1ccccc1Sc1ccc(Cl)nn1 (stereo not drawn) [compound 28]
Rating of effect Day-2 [1]: 3 (≥90) | Rating of effect Day-7 [1]: 3 (≥90) | mortality at 100 ppm [2, 4]: 95% | mortality at 100 ppm [2, 5]: 100%

CCCSP(=O)(OCC)Oc1ccccc1Sc1ccc(Cl)nn1 (stereo not drawn) [compound 31]
LD50 [3]: > 300 mg/kg | Rating of effect Day-2 [1]: 3 (≥90) | Rating of effect Day-7 [1]: 3 (≥90)

CCOP(=O)(Oc1ccccc1Oc1ccc(Cl)nn1)SC(C)C (stereo not drawn) [compound 33]
LD50 [3]: > 300 mg/kg

CCOP(=O)(Oc1ccccc1Oc1ccc(Cl)nn1)SC(C)CC (stereo not drawn) [compound 36]
mortality at 100 ppm [2, 4]: 100% | mortality at 100 ppm [2, 5]: 100%

CCCSP(=O)(OCC)Oc1ccccc1Oc1ccc(C)nn1 (stereo not drawn) [compound 37]
Rating of effect Day-2 [1]: 3 (≥90) | Rating of effect Day-7 [1]: 3 (≥90)

CCCSP(=O)(OCC)Oc1ccccc1Oc1ccc(N)nn1 (stereo not drawn) [compound 43]
Rating of effect Day-2 [1]: 3 (≥90) | Rating of effect Day-7 [1]: 3 (≥90)

CCCSP(=S)(OCC)Oc1ccccc1Oc1ccc(N)nn1 (stereo not drawn) [compound 44]
LD50 [3]: > 300 mg/kg | Rating of effect Day-2 [1]: 3 (≥90) | Rating of effect Day-7 [1]: 3 (≥90)

CCCSP(=O)(OCC)Oc1ccccc1Sc1ccc(N(C)C)nn1 (stereo not drawn) [compound 45]
Rating of effect Day-2 [1]: 3 (≥90) | Rating of effect Day-7 [1]: 3 (≥90)

CCCSP(=S)(OCC)Oc1ccccc1Sc1ccc(NC(C)CC)nn1 (stereo not drawn) [compound 46]
LD50 [3]: > 300 mg/kg | Rating of effect Day-2 [1]: 3 (≥90) | Rating of effect Day-7 [1]: 3 (≥90)
